Reference: the supplement of paper PMC10307832

Columns and labels:
Experiment in all cases: relative viability (nuclei count vs DMSO), 5 days (fraction); higher = more cells survive
NCI-H2405 = test system: NCI-H2405
Procedure, shortened: (§1)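 Dosing by pin tool came one day after lung cancer cell lines were seeded in 1536-well plates, using either one drug or a fixed anchor-drug dose plus five library-drug doses (not always all listed) in √10 steps. After 5 days, nuclei were counted on 4× images. Relative viability is treated-well nuclei count divided by vehicle-well nuclei count, and values are medians of duplicate plates.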

NCI-H1355 = test system: NCI-H1355
Procedure, shortened: as §1

NCI-H441 = test system: NCI-H441
Procedure, shortened: as §1

NCI-H23 = test system: NCI-H23
Procedure, shortened: as §1

SK-MES-1 = test system: SK-MES-1
Procedure, shortened: as §1

NCI-H2023 = test system: NCI-H2023
Procedure, shortened: as §1

NCI-H727 = test system: NCI-H727
Procedure, shortened: as §1

NCI-H2009 = test system: NCI-H2009
Procedure, shortened: as §1

UMC-11 = test system: UMC-11
Procedure, shortened: as §1

NCI-H322M = test system: NCI-H322M
Procedure, shortened: as §1

LCLC-97TM1 = test system: LCLC-97TM1
Procedure, shortened: as §1

NCI-H1755 = test system: NCI-H1755
Procedure, shortened: as §1

NCI-H2085 = test system: NCI-H2085
Procedure, shortened: as §1

ChaGo-K-1 = test system: ChaGo-K-1
Procedure, shortened: as §1

LOU-NH91 = test system: LOU-NH91
Procedure, shortened: as §1

NCI-H2170 = test system: NCI-H2170
Procedure, shortened: as §1

NCI-H650 = test system: NCI-H650
Procedure, shortened: as §1

RERF-LC-KJ = test system: RERF-LC-KJ
Procedure, shortened: as §1

NCI-H1437 = test system: NCI-H1437
Procedure, shortened: as §1

HCC-78 = test system: HCC-78
Procedure, shortened: as §1

ABC-1 = test system: ABC-1
Procedure, shortened: as §1

HOP-62 = test system: HOP-62
Procedure, shortened: as §1

## O=C(O)CCCCC(CCSCc1ccccc1)SCc1ccccc1 (stereo not given) [CPI-613] + Cc1cc(Nc2cc(N3CCN(C)CC3)nc(Sc3ccc(NC(=O)C4CC4)cc3)n2)n[nH]1 [Tozasertib] (partner 0.1 µM)
NCI-H2405; first compound 5 µM
  relative viability: 0.75
NCI-H2405; first compound 15.81 µM
  relative viability: 0.616
NCI-H2405; first compound 50 µM
  relative viability: 0.625
NCI-H2405; first compound 158.11 µM
  relative viability: 0.554
NCI-H2405; first compound 500 µM
  relative viability: 0.533
NCI-H1355; first compound 5 µM
  relative viability: 0.541
NCI-H1355; first compound 15.81 µM
  relative viability: 0.512
NCI-H1355; first compound 50 µM
  relative viability: 0.508
NCI-H1355; first compound 158.11 µM
  relative viability: 0.314
NCI-H1355; first compound 500 µM
  relative viability: 0.112
NCI-H441; first compound 5 µM
  relative viability: 0.704
NCI-H441; first compound 15.81 µM
  relative viability: 0.633
NCI-H441; first compound 50 µM
  relative viability: 0.649
NCI-H441; first compound 158.11 µM
  relative viability: 0.247
NCI-H441; first compound 500 µM
  relative viability: 0.0826
NCI-H23; first compound 5 µM
  relative viability: 0.348
NCI-H23; first compound 15.81 µM
  relative viability: 0.284
NCI-H23; first compound 50 µM
  relative viability: 0.337
NCI-H23; first compound 158.11 µM
  relative viability: 0.223
NCI-H23; first compound 500 µM
  relative viability: 0.0061
SK-MES-1; first compound 5 µM
  relative viability: 0.895
SK-MES-1; first compound 15.81 µM
  relative viability: 0.783
SK-MES-1; first compound 50 µM
  relative viability: 0.753
SK-MES-1; first compound 158.11 µM
  relative viability: 0.138
SK-MES-1; first compound 500 µM
  relative viability: 0.106
NCI-H2023; first compound 5 µM
  relative viability: 0.359
NCI-H2023; first compound 15.81 µM
  relative viability: 0.234
NCI-H2023; first compound 50 µM
  relative viability: 0.312
NCI-H2023; first compound 158.11 µM
  relative viability: 0.0417
NCI-H2023; first compound 500 µM
  relative viability: 0.0077
NCI-H727; first compound 5 µM
  relative viability: 0.557
NCI-H727; first compound 15.81 µM
  relative viability: 0.697
NCI-H727; first compound 50 µM
  relative viability: 0.685
NCI-H727; first compound 158.11 µM
  relative viability: 0.369
NCI-H727; first compound 500 µM
  relative viability: 0.455
NCI-H2009; first compound 5 µM
  relative viability: 0.67
NCI-H2009; first compound 15.81 µM
  relative viability: 0.696
NCI-H2009; first compound 50 µM
  relative viability: 0.699
NCI-H2009; first compound 158.11 µM
  relative viability: 0.136
NCI-H2009; first compound 500 µM
  relative viability: 0.0212
UMC-11; first compound 5 µM
  relative viability: 0.189
UMC-11; first compound 15.81 µM
  relative viability: 0.195
UMC-11; first compound 50 µM
  relative viability: 0.183
UMC-11; first compound 158.11 µM
  relative viability: 0.127
UMC-11; first compound 500 µM
  relative viability: 0.116
NCI-H322M; first compound 5 µM
  relative viability: 0.499
NCI-H322M; first compound 15.81 µM
  relative viability: 0.452
NCI-H322M; first compound 50 µM
  relative viability: 0.499
NCI-H322M; first compound 158.11 µM
  relative viability: 0.25
NCI-H322M; first compound 500 µM
  relative viability: 0.0634
LCLC-97TM1; first compound 5 µM
  relative viability: 0.209
LCLC-97TM1; first compound 15.81 µM
  relative viability: 0.204
LCLC-97TM1; first compound 50 µM
  relative viability: 0.247
LCLC-97TM1; first compound 158.11 µM
  relative viability: 0.138
LCLC-97TM1; first compound 500 µM
  relative viability: 0.0361
NCI-H1755; first compound 5 µM
  relative viability: 0.558
NCI-H1755; first compound 15.81 µM
  relative viability: 0.52
NCI-H1755; first compound 50 µM
  relative viability: 0.581
NCI-H1755; first compound 158.11 µM
  relative viability: 0.402
NCI-H1755; first compound 500 µM
  relative viability: 0.356
NCI-H2085; first compound 5 µM
  relative viability: 0.769
NCI-H2085; first compound 15.81 µM
  relative viability: 0.683
NCI-H2085; first compound 50 µM
  relative viability: 0.734
NCI-H2085; first compound 158.11 µM
  relative viability: 0.386
NCI-H2085; first compound 500 µM
  relative viability: 0.105
ChaGo-K-1; first compound 5 µM
  relative viability: 0.207
ChaGo-K-1; first compound 15.81 µM
  relative viability: 0.185
ChaGo-K-1; first compound 50 µM
  relative viability: 0.234
ChaGo-K-1; first compound 158.11 µM
  relative viability: 0.148
ChaGo-K-1; first compound 500 µM
  relative viability: 0.16
LOU-NH91; first compound 5 µM
  relative viability: 0.651
LOU-NH91; first compound 15.81 µM
  relative viability: 0.611
LOU-NH91; first compound 50 µM
  relative viability: 0.62
LOU-NH91; first compound 158.11 µM
  relative viability: 0.684
LOU-NH91; first compound 500 µM
  relative viability: 0.643
NCI-H2170; first compound 5 µM
  relative viability: 0.732
NCI-H2170; first compound 15.81 µM
  relative viability: 0.55
NCI-H2170; first compound 50 µM
  relative viability: 0.694
NCI-H2170; first compound 158.11 µM
  relative viability: 0.347
NCI-H2170; first compound 500 µM
  relative viability: 0.183
NCI-H650; first compound 5 µM
  relative viability: 0.702
NCI-H650; first compound 15.81 µM
  relative viability: 0.623
NCI-H650; first compound 50 µM
  relative viability: 0.699
NCI-H650; first compound 158.11 µM
  relative viability: 0.546
NCI-H650; first compound 500 µM
  relative viability: 0.586
RERF-LC-KJ; first compound 5 µM
  relative viability: 0.536
RERF-LC-KJ; first compound 15.81 µM
  relative viability: 0.513
RERF-LC-KJ; first compound 50 µM
  relative viability: 0.454
RERF-LC-KJ; first compound 158.11 µM
  relative viability: 0.188
RERF-LC-KJ; first compound 500 µM
  relative viability: 0.0899
NCI-H1437; first compound 5 µM
  relative viability: 0.374
NCI-H1437; first compound 15.81 µM
  relative viability: 0.39
NCI-H1437; first compound 50 µM
  relative viability: 0.407
NCI-H1437; first compound 158.11 µM
  relative viability: 0.156
NCI-H1437; first compound 500 µM
  relative viability: 0.131
HCC-78; first compound 5 µM
  relative viability: 0.46
HCC-78; first compound 15.81 µM
  relative viability: 0.402
HCC-78; first compound 50 µM
  relative viability: 0.408
HCC-78; first compound 158.11 µM
  relative viability: 0.433
HCC-78; first compound 500 µM
  relative viability: 0.405
ABC-1; first compound 5 µM
  relative viability: 0.215
ABC-1; first compound 15.81 µM
  relative viability: 0.189
ABC-1; first compound 50 µM
  relative viability: 0.189
ABC-1; first compound 158.11 µM
  relative viability: 0.179
ABC-1; first compound 500 µM
  relative viability: 0.207
HOP-62; first compound 5 µM
  relative viability: 0.383
HOP-62; first compound 15.81 µM
  relative viability: 0.305
HOP-62; first compound 50 µM
  relative viability: 0.286
HOP-62; first compound 158.11 µM
  relative viability: 0.191
HOP-62; first compound 500 µM
  relative viability: 0.0544
